For data set [1] the following is noted: rodents, in vivo.
For the next data set, the target named is T1, wildtype human LRRK2 (Homo sapiens, UniProt Q5S007).
T1 construct: human LRRK2 protein fragment encompassing amino acids 1326 to 2527; GST; made in house
T1 sequence (Q5S007 1326-2527): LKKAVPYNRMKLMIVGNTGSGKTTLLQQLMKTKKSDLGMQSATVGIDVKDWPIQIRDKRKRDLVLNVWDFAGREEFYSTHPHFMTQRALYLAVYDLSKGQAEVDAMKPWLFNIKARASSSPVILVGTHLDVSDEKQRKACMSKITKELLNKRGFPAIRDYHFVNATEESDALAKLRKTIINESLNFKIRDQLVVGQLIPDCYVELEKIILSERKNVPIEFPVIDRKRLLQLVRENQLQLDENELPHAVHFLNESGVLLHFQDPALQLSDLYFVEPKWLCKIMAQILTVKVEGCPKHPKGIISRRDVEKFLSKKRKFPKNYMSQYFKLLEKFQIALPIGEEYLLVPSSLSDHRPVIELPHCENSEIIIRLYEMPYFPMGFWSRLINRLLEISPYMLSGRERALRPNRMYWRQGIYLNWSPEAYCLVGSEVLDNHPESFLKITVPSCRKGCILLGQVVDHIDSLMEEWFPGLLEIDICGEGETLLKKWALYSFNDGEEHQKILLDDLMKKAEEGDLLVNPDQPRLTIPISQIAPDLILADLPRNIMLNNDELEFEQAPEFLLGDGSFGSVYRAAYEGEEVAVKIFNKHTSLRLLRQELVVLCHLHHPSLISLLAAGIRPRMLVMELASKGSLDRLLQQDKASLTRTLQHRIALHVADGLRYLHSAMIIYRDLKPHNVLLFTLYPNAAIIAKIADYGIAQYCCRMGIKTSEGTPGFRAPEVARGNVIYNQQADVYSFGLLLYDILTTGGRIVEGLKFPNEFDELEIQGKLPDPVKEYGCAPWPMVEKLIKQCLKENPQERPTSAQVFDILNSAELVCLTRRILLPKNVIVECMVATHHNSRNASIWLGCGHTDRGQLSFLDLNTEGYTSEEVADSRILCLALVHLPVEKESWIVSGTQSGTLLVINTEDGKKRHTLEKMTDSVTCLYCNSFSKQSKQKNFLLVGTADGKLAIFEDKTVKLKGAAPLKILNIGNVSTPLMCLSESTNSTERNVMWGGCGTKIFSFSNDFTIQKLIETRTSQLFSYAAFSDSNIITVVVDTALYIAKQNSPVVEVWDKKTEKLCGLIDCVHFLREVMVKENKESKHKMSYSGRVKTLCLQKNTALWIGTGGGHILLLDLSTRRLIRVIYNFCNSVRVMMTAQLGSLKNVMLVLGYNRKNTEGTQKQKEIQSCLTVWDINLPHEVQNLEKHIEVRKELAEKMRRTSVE
Nature of the data set: Adapta assay, inhibition of wildtype human LRRK2 kinase fragment with LRRKtide. It is filed as biochemical.

Data set [2] concerns R1441C LRRK2 transgenic C. elegans. Nature of the data set: Food-sensing (slowing) response in LRRK2 transgenic C. elegans. It is filed as in vivo. The note with it: Caenorhabditis elegans, 96 h; exposure through larval stages to adult stage day 4; read-out: Half-maximal restoration of the slowing response after food exposure. Here is the method: Dopaminergic neurons in C. elegans are involved in food sensing behavior such that in the absence of food worms move more rapidly, as assessed by determining their bending frequency on an agar plate not supplied with food. In an established assay the animals are then exposed to food, and the difference in motility is recorded in the form of bending frequency [Sawin et al., Neuron 26, 619-631 (2000)]. […] In approximate synchrony with the dopaminergic neurodegeneration this slowing response is essentially eliminated after 4 days. […] The slowing response can be reconstituted to a substantial degree by supplementation with dopamine, confirming that the phenotype is due to loss of dopaminergic input (FIG. 5).
The clear-cut functional phenotype of this model can be used to determine the efficacy of LRRK2 kinase inhibitors and the accurate determination of their potency in a biological context. […] The potency is expressed as the half-maximal restoration of the slowing response. […]
The functional consequence of dopaminergic neurodegeneration was assayed using the food-sensing response resulting in a slowing of motility after food exposure as assessed by the frequency of body bending within 20 second intervals in groups of 10 animals [Sawin et al., Neuron 26, 619-631 (2000)]. […]

Read-outs that look alike come from different tables or passages of the source.

On to `CNC(=O)[C@@]1(N)CC2OC1(C)n1c3ccccc3c3c4c(c5c6ccccc6n2c5c31)C(=O)NC4` (some centres unmarked) [Compound 3], for which the “Plasma concentration sustained without detectable toxicity” value in data set [1] lay in the range of 600 to 800 nM. Moreover, on wildtype human LRRK2 (100 μM ATP, FIG. 3A), the “IC50 relative to nominal kinase concentration, wild-type LRRK2” value was “substantially below the nominal concentration of the kinase itself”. For the same molecule, the IC50 is 1.1 nM at wildtype human LRRK2 (100 μM ATP, read-out: LRRK2) and ≤ 1 nM at wildtype human LRRK2 (100 microM ATP, read-out: LRRK2 inhibitory potency (essentially receptor-limited)). In data set [2], the EC50 worked out at 30 nM.

Source of the values: patent US20100273769A1, “COMPOSITION AND METHOD FOR THE TREATMENT OF PARKINSON'S DISEASE” (priority 2009, published 2010).
